Reference: article PMC5460220, “Dual PI3K and Wnt pathway inhibition is a synergistic combination against triple negative breast cancer” (NPJ Breast Cancer, 2017)
Like-named read-outs stand apart in the source and are kept apart here.

Key:
[1] = tested on: advanced TNBC; parameters: method as in ref 17 = [17]; 17. Nanda, R. A phase Ib study of pembrolizumab (MK-3475) in patients with advanced triple- negative breast cancer. SABCS Annual. Meeting. Oral. Presentation . (2014).; conditions: phase Ib trial; cited from earlier work
[2] = quantification of drug in resected tumors, HPLC-MS/MS; format: in vivo, NSG mice; conditions: NSG, mouse, tumor, 7 days once daily, average with standard deviation; for concentration at 1 h: 1 h post the last dose; for concentration at 7 h: 7 h post the last dose
Method: After 7 days of treatment, we observe a ~40% decrease in tumor volume. b Quantification of drug in tumors resected from mice treated in our PD study. Half of the tumors were resected at 1 h post the last dose, and the other half 7 h post the last dose. Using Highperformance liquid chromatography-mass spectrometry (HPLC-MS/MS), buparlisib and WNT974 were quantified as nanograms of drug per gram of tumor tissue (ng/g). Average values with standard deviation are presented. LOQ limit of quantitation c As TMD-231 cells have a known propensity to metastasize to the lung, we assessed the effect of the combination therapy on the growth of lung metastases.

[3] = tested on: phospho-AKT; test: western blot for phospho-AKT in PD study tumors; format: in vivo, NSG mice; conditions: TMD-231 xenograft tumors, 7 days of dosing
Method: (§1) To further assess preliminary efficacy and target modulation, a PD experiment was performed. […] Tumors were allowed to grow for 29 days to an average size of ~350 mm^3. […] After only 7 days of treatment, we observed a ~40% decrease in tumor volume with the combination, while tumors actually grew slightly in the face of single agent therapy, again, giving further observations of synergy (Fig. 4a). On the 7th day, the mice had plasma drawn, and then euthanized and the tumor removed. Measurement of buparlisib and WNT974 concentrations in tumor tissue confirmed that these agents were reaching the tumor (Fig. 4b). To assess molecular target modulation, RNA and protein was isolated from each of the tumors in our PD study and biomarker analysis was performed. […] (Supplementary Fig. 3a). […] Target modulation was assessed using qPCR for Axin2 (a marker of WNT974), and western blot for porcupine and phospho-Akt […] (a marker of buparlisib activity). qPCR was performed using Taqman assays (Life Technologies). Protein was isolated after 48 h of treatment in biological triplicates using radioimmunoprecipitation assay buffer and quantified with bicinchoninic acid assay (Thermo Fisher). Protein was run on bis-tris gels (Life Technologies) and transferred to polyvinylidene fluoride membrane. […] Quantification of blots was performed using ImageJ (NIH) and statistical analysis using GraphPad.

[4] = tested on: AXIN2 RNA; test: qPCR for AXIN2 RNA in PD study tumors; format: in vivo, NSG mice; conditions: TMD-231 xenograft tumors, 7 days of dosing
Method: as §1

[5] = tested on: TMD-231 lung metastases; test: quantification of lung metastases, Ki67 staining; format: in vivo, NSG mice; conditions: TMD-231 xenograft, PD study lungs; combination p = 0.0196
Source text: The TMD-231 cells used in our PD study have a known propensity to metastasize to the lung.[29] To assess the effect of the combination therapy on the growth of lung metastases, lung tissues from our PD study were stained and analyzed for metastatic burden. […] Lungs were extracted, fixed in 10% formalin, and processed in paraffin. Five-micrometer sections were H&E stained, deparaffinized, blocked, and stained using primary anti-human Ki67 antibody (DAKO, Carpinteria, California). The Aperio whole slide digital imaging system was used for imaging (Leica, Wetzlar, Germany). Using the Aperio ScanScope CS, ×20 images were taken at scan times ranging from 1.5 to 2.25 min. The total nuclear labeling index (Ki67) was generated using the Aperio ImageScope standard positive pixel algorithm. The Image Analysis software was used to calculate the percent of positive pixels (brown staining) in one large cross section from each lung.

[6] = tested on: TNBC patient-derived xenograft (PDX); test: TNBC PDX survival study; format: in vivo, NSG mice; conditions: n = 10 per group, once-a-day for a maximum of 28 days, buparlisib 30 mg/kg, WNT974 3 mg/kg
[7] = tested on: porcupine; parameters: method as in PMID 24277854; conditions: recently published data; cited from earlier work
[8] = tested on: tumor growth; parameters: method as in PMID 24277854; conditions: recently published data; cited from earlier work
[9] = known; cited from earlier work
[10] = tested on: metastatic TNBCs; parameters: method as in ref 16 = [16]; 16. Dirix, L. Avelumab (MSB0010718C), an anit-PD-L1 antibody, in patients with locally advanced or metastatic breast cancer: a phse Ib JAVELIN solid tumor trial. SABCS Annual. Meeting. Oral. Presentat; conditions: patients with metastatic TNBCs, phase Ib JAVELIN trial; cited from earlier work
[11] = tested on: porcupine (PORCN); test: RNA-seq of MDA-MB-231 cells before and after buparlisib treatment; format: cell-based, human; conditions: MDA-MB-231, RNA-seq before and after treatment
Method: RNA-sequencing for the buparlisib treated MDA-MB-231 cell line experiment was performed as follows. To enrich for the non-ribosomal RNA transcriptome, RNA samples were first depleted of ribosomal RNA using the Low Input Ribominus Kit (Life Technologies). ERCC spike-in controls (Pool 1) were introduced for all samples (Life Technologies). RNA libraries were constructed using the Ion Total RNA-Seq Kit for AB Library Builder System (Life Technologies) per manufacturer’s instructions. Libraries were barcoded using the IonXpress RNA-Seq Barcode 1–16 Kit (Life Technologies), and libraries were quantified using the Agilent TapeStation 2200 along with the DNA D1K Kit. Libraries were diluted to a concentration of 11 pM prior to templating and emulsion polymerase chain reaction (PCR) using the Ion Template OT2 200 v2 kit along with Ion OneTouch 2 instrument (Life Technologies). Templates were quantified using the IonSphere Quality Control Kit (Life Technologies). Samples were sequenced on an Ion Proton Next-Generation Sequencer using the Ion Proton PI chip and the Ion PI Sequencing 200 v2 kit (Life Technologies). Samples were sequenced using two RNA-seq libraries/samples per chip to an average of 30–40 million reads per sample. Reads were mapped to the human genome (hg19) using the STAR algorithm.[36] Aligned BAM files were then imported into Partek Genomics Suite. […]

[12] = tested on: phosphorylated-AKT (p-AKT Ser 473); test: western blot for p-AKT in TNBC cell lines; format: cell-based, human; conditions: MDA-MB-231, HCC70 and HCC1143; 48 h treatment
Method: (§2) To further confirm the induction of porcupine after buparlisib treatment, but at the protein level, we performed western blotting for porcupine and p-AKT before and after treatment with buparlisib.
(§3) Target modulation was assessed using qPCR for Axin2 (a marker of WNT974), and western blot for porcupine and phospho-Akt Ser 473 (a marker of buparlisib activity). qPCR was performed using Taqman assays (Life Technologies). Protein was isolated after 48 h of treatment in biological triplicates using radioimmunoprecipitation assay buffer and quantified with bicinchoninic acid assay (Thermo Fisher). Protein was run on bis-tris gels (Life Technologies) and transferred to polyvinylidene fluoride membrane. Primary pAKT-Ser 473 antibody (Cell Signaling Technology, Beverly, Massachusetts), β-actin (Cell Signaling Technology), and PORCN (Abcam, Cambridge, England) was incubated overnight with subsequent 1-hour incubation with horseradish peroxidase-conjugate secondary antibody. Staining was performed using a chemiluminescent substrate (ThermoFisher). Imaging was performed using an LAS-4000 Luminescent Image Analyzer (Fujifilm, Tokyo, Japan). Quantification of blots was performed using ImageJ (NIH) and statistical analysis using GraphPad.

[13] = tested on: porcupine (PORCN) protein; test: western blot for porcupine in TNBC cell lines; format: cell-based, human
Method: as §2, §3

[14] = 3 mg/kg, read-out: WNT974 in tumor tissue
[15] = 30 mg/kg, read-out: Buparlisib in tumor tissue

pembrolizumab: immune checkpoint therapy tested in a phase Ib trial in advanced TNBC
overall response rate [1]: 18.5%

Cc1cc(-c2ncc(CC(=O)Nc3ccc(-c4cnccn4)cn3)cc2C)ccn1 [WNT974]
concentration at 1 h [2, 14]: 19.2 ± 1.11 ng/g | concentration at 7 h [2, 14]: 8.34 ± 0.33 ng/g | inhibition of phospho-AKT in tumors [3]: not | AXIN2 RNA levels in tumors [4]: decreased | lung metastases compared with the control group [5]: small but non-significant decreases | mice survived to the end of the study [6]: 0% | inhibition of its target (porcupine) [7]: potent inhibition | inhibition of tumor growth in vivo [8]: significant inhibition | toxicity / most common side effect in humans [9]: dysgeusia

avelumab: an anti-PD-L1 antibody
overall response rate [10]: 8.6%

Nc1cc(C(F)(F)F)c(-c2cc(N3CCOCC3)nc(N3CCOCC3)n2)cn1 [buparlisib]
PORCN over-expression after PI3K inhibition [11]: ~ 8 fold | phospho-AKT after treatment [12]: potent inhibition | PORCN protein, quantified western blot ([13]; HCC70, 10 x IC50 buparlisib, p-value 0.0084): significant increase | PORCN protein, quantified western blot ([13]; HCC1143, IC50 buparlisib, p-value 0.013): significant increases | PORCN protein, quantified western blot ([13]; MD-MB-231, IC50 buparlisib, p-value 0.0072): significant increases | concentration at 1 h [2, 15]: 3590 ± 898 ng/g | concentration at 7 h [2, 15]: 2960 ± 683 ng/g | inhibition of phospho-AKT in tumors [3]: observed | lung metastases compared with the control group [5]: small but non-significant decreases | mice survived to the end of the study [6]: 40% | toxicity / most common side effect in humans [9]: depression, anxiety, pneumonitis, and liver toxicity
